Laboratory results published in US20240336568A1, “SELECTIVE PHD1 INHIBITOR COMPOUNDS, COMPOSITIONS, AND METHODS OF USE” (Akebia Therapeutics, Inc., priority 2021, published 2024).

The compounds below were run on full-length human prolyl-4-hydroxylase domain (PHD) enzymes, PHD1 and PHD2 (assay: TR-FRET assay, selectivity of compounds for PHD1 over PHD2 (ratio of Kis calculated from IC50s)). Conditions: ratio of Kis (PHD2 Ki/PHD1 Ki), Kis calculated from TR-FRET IC50s by Cheng Prussoff equation; 1 uM 2-OG.
Type: biochemical
From the text: Time-resolved fluorescence resonance energy transfer (TR-FRET) assay was utilized to determine the enzymatic half maximal inhibitory concentration (IC50) value of PHD inhibitors against the full-length human prolyl-4-hydroxylase domain (PHD) enzymes, PHD1 and PHD2. The TR-FRET assay was developed based on the specific binding of hydroxylated HIF-la peptide with the complex formed by VHL, EloB and EloC (VBC), to generate a fluorescent signal. Terbium (Tb)-Donor (monoclonal antibody anti-6His-Tb-cryptate Gold) and D2-acceptor (streptavidin [SA]-D2) of TR-FRET are linked to the VBC complex and to HIF-1α peptide, respectively. The VBC complex binds specifically to the HIF-1α peptide when it is hydroxylated, allowing energy transfer from TR-FRET donor to acceptor (FIG. 1).
TR-FRET Reagents. Monoclonal antibody anti-6His-Tb-cryptate Gold (catalog #61HI2TLA) and streptavidin (SA)-D2 (catalog #610SADLA) were purchased from CisBio International (Bedford, MA, USA).
N-terminus biotinylated HIF-1α C35 synthetic peptide representing amino acids 547 to 581 and including the proline 564 PHD2 hydroxylation site was purchased from California Peptide Research (Salt Lake City, UT, USA).
VBC Complex. His-tagged recombinant VHL protein, EloB, EloC complex (His-VBC) was supplied by Axxam (Milan, Italy). Recombinant human VHL (National Center for Biotechnology Information [NCBI] accession number NP_00542.1) contained a His tag at the C-terminus of amino acids 55 to 213 and is referred to as VHL-His. VHL-His was co-expressed in E. coli with full-length human EloB (NCBI accession number Q15370.1) and full-length human EloC (NCBI accession number Q15369.1) and purified by affinity chromatography on a nickel-nitrilotriacetic acid (Ni-NTA) column as the His-VBC complex. Purity (˜80%) was assessed by sodium dodecyl sulfate polyacrylamide gel electrophoresis (SDS-PAGE).
PHD1. Recombinant human PHD1 protein (catalog #81064, Lot #24717001) was purchased from Active Motif (Carlsbad, CA, USA). PHD1 was expressed in a baculovirus expression system as the full-length protein (NCBI accession number NP_542770.2) with an N-terminal FLAG tag (molecular weight 44.9 kDa). Purity (>90%) was assessed by SDS-PAGE.
PHD2. The full-length human PHD2 enzyme was produced with a baculovirus infected insect cell (BIIC) expression system by Beryllium (Bedford, MA, USA). The PHD2 construct contained amino acids 1 to 426 of PHD2 (UniProt Knowledgebase[UniProtKB]/Swiss-Prot accession number Q9GZT9.1), and a His tag and a Tobacco Etch Virus (TEV) protease cleavage site at the N-terminus. The construct was expressed in Sf9 insect cells, purified by Ni-NTA column and digested with TEV protease to remove the His tag.
Compounds were preincubated with PHD enzyme in a 10 μL reaction volume in white 384-well Optiplate microplates (catalog #6007290, Perkin Elmer, Waltham, MA, USA). For this, 5 μL compound was serially diluted with dilution buffer (50 mM HEPES [4-(2-hydroxyethyl)-1-piperazineethanesulfonic acid] pH 7.5, 50 mM sodium chloride [NaCl], 0.01% Tween-20, 0.01% purified bovine serum albumin [BSA]) and mixed with 5 μL PHD enzyme mix prepared as a 4× concentrate in the dilution buffer containing PHD enzyme (60 nM PHD1, 20 nM PHD2, 140 nM PHD3), 40 μM ferrous ammonium sulfate (FAS), 4 mM sodium (Na) ascorbate. The plates were incubated for 30 minutes at room temperature without rotation.
Five microliters of the VBC/anti-6His-Tb-cryptate Gold mix prepared as a 4× concentrate in dilution buffer containing 20 nM His-VBC, 1.32 nM monoclonal antibody anti-6His-Tb-cryptate Gold was then added. This step was followed immediately by the addition of 5 μL of the HIF-1α C35 substrate mix prepared as a 4× concentrate in the dilution buffer containing 120 nM biotin-labeled HIF-1α C35, 132 nM SA-D2, 4 μM 2-oxoglutarate (2-OG) to reach a final reaction volume of 20 μL. […]

| Structure (SMILES) | Selectivity of PHD1 over PHD2 |
| --- | --- |
| CC(C)(CNC(=O)c1ncc(-c2ccc3cc(OCc4ccc(Cl)cc4)ccc3c2)cc1O)C(=O)O [compound 27, 3-(5-(6-((4-chlorobenzyl)oxy)naphthalen-2-yl)-3-hydroxypicolinamido)-2,2-dimethylpropanoic acid] | ~24 fold |
| CC(CNC(=O)c1ncc(-c2cnn(-c3ccccc3)c2)cc1O)C(=O)O (centres unmarked) [compound 50, 3-(3-hydroxy-5-(1-phenyl-1H-pyrazol-4-yl)picolinamido)-2-methylpropanoic acid] | ~50 fold |
| CCOc1ccc2cc(-c3cnc(C(=O)NCC(C)(C)C(=O)O)c(O)c3)ccc2c1 [compound 58, 3-(5-(6-ethoxynaphthalen-2-yl)-3-hydroxypicolinamido)-2,2-dimethylpropanoic acid] | ~911 fold |
| CC(C)(CNC(=O)c1ncc(-c2ccc3cc(Oc4ccc(Cl)cc4)ccc3c2)cc1O)C(=O)O [compound 26, 3-(5-(6-(4-chlorophenoxy)naphthalen-2-yl)-3-hydroxypicolinamido)-2,2-dimethylpropanoic acid] | ~31 fold |
| Cc1ncc(-c2cnc(C(=O)NCC(C)(C)C(=O)O)c(O)c2)s1 [compound 14, 3-(3-hydroxy-5-(2-methylthiazol-5-yl)picolinamido)-2,2-dimethylpropanoic acid] | ~15 fold |
| O=C(O)CCNC(=O)c1ncc(-c2ccc3ccccc3c2)cc1O [compound 62, 3-(3-hydroxy-5-(naphthalen-2-yl)picolinamido)propanoic acid] | ~24 fold |
| CC(C)(CNC(=O)c1ncc(-c2cccc(-c3cccnc3)c2)cc1O)C(=O)O [compound 15, 3-(3-hydroxy-5-(3-(pyridin-3-yl)phenyl)picolinamido)-2,2-dimethylpropanoic acid] | ~125 fold |
| CC(CNC(=O)c1ncc(-c2cccc(Cl)c2)cc1O)C(=O)O (centres unmarked) [compound 49, 3-(5-(3-chlorophenyl)-3-hydroxypicolinamido)-2-methylpropanoic acid] | ~12 fold |
| CC(C)(CNC(=O)c1ncc(-c2cnn(-c3ccccc3)c2)cc1O)C(=O)O [compound 6, 3-(3-Hydroxy-5-(1-phenyl-1H-pyrazol-4-yl)picolinamido)-2,2-dimethylpropanoic acid] | ~249 fold |
| CC(C)(CNC(=O)c1ncc(-c2cnn3c2CCCC3)cc1O)C(=O)O [compound 38, 3-(3-hydroxy-5-(4,5,6,7-tetrahydropyrazolo[1,5-a]pyridin-3-yl)picolinamido)-2,2-dimethylpropanoic acid] | ~49 fold |
| COc1cc2c(-c3cnc(C(=O)NCC(C)(C)C(=O)O)c(O)c3)cn(C)c2cn1 [compound 55, 3-(3-hydroxy-5-(5-methoxy-1-methyl-1H-pyrrolo[2,3-c]pyridin-3-yl)picolinamido)-2,2-dimethylpropanoic acid] | ~96 fold |
